Measured values from patent US4256751A, “Tetrahydroisoquinoline derivatives” (Tanabe Seiyaku Co., Ltd., priority 1978, dated 1981).

Tests used:
[1] = test system: spontaneously hypertensive rats (SHR); test: Hypotensive activity in SHR; format: in vivo, rat (SHR); details: 50 mg/kg orally
Description: A test compound (dose: 50 mg/kg) suspended in an aqueous carboxymethylcellulose solution was administered orally to spotaneously hypertensive rats (SHR) fasted for a day. The systolic blood pressure of the rats was measured by the tail plethysmographic technique (The Journal of Laboratory and Clinic Medicine 78(1971), page 957). The hypotensive activity of the test compound was estimated from the decreased level of blood pressure.

[2] = test system: ADP-induced platelet aggregation; test: Platelet aggregation-inhibiting activity (ADP-induced, diluted platelet-rich plasma); format: cell-based, dog (male beagle); details: Canis lupus familiaris, test compound solution 100 μg/ml, added 2 minutes before ADP, beagle PRP, read-out: Platelet aggregation inhibiting activity (percentage inhibition of the second wave of ADP-induced platelet aggregation)
Description: The bottom layer was further centrifuged at 1000×g for 15 minutes to give platelet-poor plasma (PPP) as the supernatant solution.

[3] = test system: mice; test: Oral toxicity in mice; format: in vivo; details: 3 g/kg
Excerpt: . Moreover, the compound (I) of the present invention decreases aggregation of blood platelets and can be used to improve blood flow disturbances or other vascular diseases due to the formation of platelet aggregates (i.e., thrombus). Since the hypertensive disease is largely found in the aged subjects who show an increased tendency to capillary fragility or thrombosis, therefore, the compound (I) of the invention is useful to prevent, in addition to the treatment of hypertension, the genesis of thrombosis and other occlusive vascular diseases of such subjects. Further, the toxicity of the compound (I) is considerably low. […]

[4] = test system: ACE; test: ACE-inhibitory activity in vivo (pressor response to angiotensin I); parameters: species or system rat (normotensive); details: 0.1 mg/kg intravenously; angiotensin I 300 ng/kg i.v.; anesthetized normotensive rats
Description: Normotensive rats weighing 300-400 g were anesthetized with urethane(1.5 g/kg, s.c.), and angiotensin I (300 ng/kg) was injected into the femoral vein of the rats. The pressor response to angiotensin I was measured with a pressure transducer connected to the carotid artery. Then, a test compound was injected intravenously thereto at a dose of 0.1 mg/kg, and angiotensin I (300 ng/kg) was further injected intravenously at intervals. The ACE-inhibitory activity of the test compound was estimated from the pressor responses to angiotensin I which were obtained before and after intraveous injection of the test compound.

C[C@H](CS)C(=O)N1Cc2ccccc2C[C@H]1C(=O)O [(3S)-2-[(2S)-3-mercapto-2-methyl-propionyl]-1,2,3,4-tetrahydroisoquinoline-3-carboxylic acid]
Hypotensive activity in SHR: Duration of action [1]: > 6 h
Hypotensive activity in SHR: Decrease in blood pressure ([1]; systolic, tail plethysmographic): ca. 20%
inhibition at 100 µg/mL [2]: 86%
mortality five days after oral administration [3]: no mouse died
ACE-inhibitory activity in vivo (percentage inhibition of ACE activity in vivo) [4]: 90%
